Structures are written as SMILES.

For one assay, the target named is T1, IL-17A/A (Homo sapiens, UniProt Q16552).
T1 construct: purchased Genscript Z03228
T1 sequence (Q16552 24-155): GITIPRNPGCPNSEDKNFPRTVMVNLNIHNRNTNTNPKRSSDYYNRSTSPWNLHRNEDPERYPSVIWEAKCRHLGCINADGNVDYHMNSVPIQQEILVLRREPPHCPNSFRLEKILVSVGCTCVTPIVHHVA
In words: IL-17A/A HEK-Blue Cell Assay. It counts as cell-based. Conditions: HEK-Blue IL-17A reporter cell line, SEAP readout at A630, 20 hours incubation with IL-17A/A; top concentration 10 uM, 1 uM or 0.3 uM. As to the method:
The HEK-Blue IL-17A reporter cell line (Fisher #NC1408637) was used for cell-based IL-17A/A inhibition assays. Cells were grown and prepared for assays according to the manufacturer's instructions. This cell line consists of HEK 293 cells that were designed to expressed IL-17RA, IL-17RC, and the ActI adapter molecule, the combination of which, when stimulated by IL-17A/A activates a NFκB promoter and drives expression of a recombinant Secreted Alkaline Phosphatase (SEAP) geneprotein. Media from the cells is then added to a development reagent (Quanti-Blue Substrate, Fisher #NC9711613), and read at A630.
Compounds were titrated in DMSO, with a top final compound concentration of 10 uM, 1 uM, or 0.3 uM, and added to the cells immediately before adding IL-17A/A (Genscript #Z03228). The cells, compound, and IL-17A/A were then incubated for 20 hours before media was removed for SEAP analysis. The resulting inhibition curve was then analyzed using Graphpad Prism 7.0, and IC50 values were determined using a 4-parameter nonlinear fit. DMSO was added to a universal final concentration of 0.1% to optimize background.
`CCC(=O)N[C@@H](C(=O)N1CCN(C)CC1)[C@@H](C)c1ccc(NC(=O)[C@@H](NC(=O)C(F)(F)C2CC2)C2CCCCC2)c(F)c1` [Compound 242]: the “IL-17A/A inhibition (pIC50)” value was “X2b (compounds were evaluated up to 1 uM and inhibited activity at 1 uM by less than 20%)”.

The same assay, now with this note: HEK-Blue IL-17A reporter cell line, SEAP readout at A630, 20 hours incubation with IL-17A/A; top concentration 10 uM, 1 uM or 0.3 uM; read-out: IL-17A/A inhibition (pIC50) (converted).
`CCC(=O)N[C@H](Cc1ccc(NC(=O)[C@@H](NC(=O)c2ccnn2C(C)C)C2CCCCCC2)c(F)c1)C(=O)N1CCN(C)CC1` [Compound 238]: the IC50 is 10 to 100 nM.
Take `CCC(=O)N[C@H](Cc1ccc(NC(=O)[C@@H](NC(=O)c2coc3cc(OC)ccc23)C2CCCCC2)c(F)c1)C(=O)N1CCN(C)CC1` [Compound 239]: the IC50 is 10 to 100 nM.
Same read-out and setting: the same measure for `CCC(=O)N[C@@H](C(=O)N1CCN(C)CC1)[C@@H](C)c1ccc(NC(=O)[C@@H](NC(=O)c2ccnn2CC)C2CCC(F)(F)CC2)c(F)c1` [Compound 240]: 10 to 100 nM; for `CCC(=O)N[C@@H](C(=O)N1CCN(C)CC1)[C@@H](C)c1ccc(NC(=O)[C@@H](NC(=O)c2ccnn2C(C)C)C2CCCCCC2)c(F)c1` [Compound 241]: less than 10 nM; for `CCC(=O)N[C@@H](C(=O)N1CCN(C)CC1)[C@@H](C)c1ccc(NC(=O)[C@@H](NC(=O)C(F)(F)c2cccc(OC)c2)C2CCCCC2)c(F)c1` [Compound 243]: 10 to 100 nM.
As to `CCC(=O)N[C@@H](C(=O)N1CCN(C)CC1)[C@@H](C)c1ccc(NC(=O)[C@@H](NC(=O)C(F)(F)c2ccc3c(c2)OCO3)C2CCCCC2)c(F)c1` [Compound 244], the IC50 was 10 to 100 nM.
On to `CCC(=O)N[C@@H](C(=O)N1CCN(C)CC1)[C@@H](C)c1ccc(NC(=O)[C@@H](NC(=O)C(F)(F)c2ccc3[nH]ncc3c2)C2CCCCC2)c(F)c1` [Compound 245], for which the IC50 is 10 to 100 nM.
On the same count and under the same terms, in the case of `CCC(=O)N[C@@H](C(=O)N1CCN(C)CC1)[C@@H](C)c1ccc(NC(=O)[C@@H](NC(=O)C(F)(F)c2cncc(OC)c2)C2CCCCC2)c(F)c1` [Compound 246] it was 10 to 100 nM.
As to `CCC(=O)N[C@@H](C(=O)N1CCN(C)CC1)[C@@H](C)c1ccc(NC(=O)[C@@H](NC(=O)c2coc3ccncc23)C2CCCCC2)c(F)c1` [Compound 247], the IC50 is 10 to 100 nM.
For the compound `CCC(=O)N[C@@H](C(=O)N1CCN(C)CC1)[C@@H](C)c1ccc(NC(=O)[C@@H](NC(=O)c2csc3ccccc23)C2CCCCC2)c(F)c1` [Compound 248], the IC50 was 10 to 100 nM.
In the case of `CCC(=O)N[C@@H](C(=O)N1CCN(C)CC1)[C@@H](C)c1ccc(NC(=O)[C@@H](NC(=O)c2csc3cnccc23)C2CCCCC2)c(F)c1` [Compound 249], the IC50 was 10 to 100 nM.
For `CCC(=O)N[C@@H](C(=O)N1CCN(C)CC1)[C@@H](C)c1ccc(NC(=O)[C@@H](NC(=O)c2csc3ncccc23)C2CCCCC2)c(F)c1` [Compound 250], the IC50 was 10 to 100 nM.
Consider `CCC(=O)N[C@@H](C(=O)N1CCN(C)CC1)[C@@H](C)c1ccc(NC(=O)[C@@H](NC(=O)C(F)(F)c2cccc(NS(C)(=O)=O)c2)C2CCCCC2)c(F)c1` [Compound 251], for which the IC50 was 10 to 100 nM.
Take `CCC(=O)N[C@@H](C(=O)N1CCN(C)CC1)[C@@H](C)c1ccc(NC(=O)[C@@H](NC(=O)C(F)(F)C2CCCCC2)C2CCCCC2)c(F)c1` [Compound 252]: the IC50 is 10 to 100 nM.
As for `CCC(=O)N[C@@H](C(=O)N1CCN(C)CC1)[C@@H](C)c1ccc(NC(=O)[C@@H](NC(=O)c2ccnn2C(C)C)[C@H]2CC[C@H](C)CC2)c(F)c1` [Compound 253], the IC50 is less than 10 nM.
On the same count and under the same terms, the same measure for `CCC(=O)N[C@@H](C(=O)N1CCN(C)CC1)[C@@H](C)c1ccc(NC(=O)[C@@H](NC(=O)c2cccn2CC)C2CCCCC2)c(F)c1` [Compound 254]: 10 to 100 nM.
`CCC(=O)N[C@@H](C(=O)N1CCN(C)CC1)[C@@H](C)c1ccc(NC(=O)[C@@H](NC(=O)c2coc3cc(OC)ccc23)C2CCCCC2)c(F)c1` [Compound 255]: the IC50 was 10 to 100 nM.
For the compound `CCC(=O)N[C@@H](C(=O)N1CCN(C)CC1)[C@@H](C)c1ccc(NC(=O)[C@@H](NC(=O)c2ccnn2C(C)C)C2CCCCC2)c(F)c1` [Compound 256], the IC50 was 10 to 100 nM.
On to `CCC(=O)N[C@@H](C(=O)N1CCN(C)CC1)[C@@H](C)c1ccc(NC(=O)[C@@H](NC(=O)c2conc2CC)C2CCCCCC2)c(F)c1` [Compound 257], for which the IC50 is less than 10 nM.
Take `CCC(=O)N[C@@H](C(=O)N1CCN(C)CC1)[C@@H](C)c1ccc(NC(=O)[C@@H](NC(=O)c2coc3cc(OC)ccc23)C2CCCCCC2)c(F)c1` [Compound 258]: the IC50 was less than 10 nM.
As to `CCC(=O)N[C@@H](C(=O)N1CCN(C)CC1)[C@@H](C)c1ccc(NC(=O)[C@@H](NC(=O)c2csc3ccccc23)C2CCCCCC2)c(F)c1` [Compound 259], the IC50 was less than 10 nM.
Regarding `CCC(=O)N[C@@H](C(=O)N1CCN(C)CC1)[C@@H](C)c1ccc(NC(=O)[C@@H](NC(=O)C(F)(F)c2cccc(C#N)c2)C2CCCCCC2)c(F)c1` [Compound 260], the IC50 is less than 10 nM.
For the compound `CCC(=O)N[C@@H](C(=O)N1CCN(C)CC1)[C@@H](C)c1ccc(NC(=O)[C@@H](NC(=O)C(F)(F)c2cncc(C#N)c2)C2CCCCCC2)c(F)c1` [Compound 261], the IC50 was less than 10 nM.
Regarding `CCC(=O)N[C@@H](C(=O)N1CCN(C)CC1)[C@@H](C)c1ccc(NC(=O)[C@@H](NC(=O)C(F)(F)c2cncc(OC)c2)C2CCCCCC2)c(F)c1` [Compound 262], the IC50 was 10 to 100 nM.
For the compound `CCC(=O)N[C@@H](C(=O)N1CCN(C)CC1)[C@@H](C)c1ccc(NC(=O)[C@@H](NC(=O)C(F)(F)c2cccc(C#N)c2)C2CCC(F)(F)CC2)c(F)c1` [Compound 263], the IC50 was less than 10 nM.
On to `CCC(=O)N[C@@H](C(=O)N1CCN(C)CC1)[C@@H](C)c1ccc(NC(=O)[C@@H](NC(=O)c2conc2CC)[C@H]2CC[C@H](C)CC2)c(F)c1` [Compound 264], for which the IC50 was 10 to 100 nM.
For the compound `CCC(=O)N[C@@H](C(=O)N1CCN(C)CC1)[C@@H](C)c1ccc(NC(=O)[C@@H](NC(=O)C(F)(F)c2csc(C)c2)C2CCCCCC2)c(F)c1` [Compound 265], the IC50 was less than 10 nM.
On the same count and under the same terms, in the case of `CCC(=O)N[C@@H](C(=O)N1CCN(C)CC1)[C@@H](C)c1ccc(NC(=O)[C@@H](NC(=O)c2coc3c2COC3)C2CCCCCC2)c(F)c1` [Compound 266] it was less than 10 nM; in that of `CCC(=O)N[C@@H](C(=O)N1CCN(C)CC1)[C@@H](C)c1ccc(NC(=O)[C@@H](NC(=O)C(F)(F)c2cnn(CC)c2)C2CCCCCC2)c(F)c1` [Compound 267], less than 10 nM; in that of `CCC(=O)N[C@@H](C(=O)N1CCN(C)CC1)[C@@H](C)c1ccc(NC(=O)[C@@H](NC(=O)c2conc2C(C)C)C2CCCCCC2)c(F)c1` [Compound 268], less than 10 nM.
Turning to `CCC(=O)N[C@@H](C(=O)N1CCN(C)CC1)[C@@H](C)c1ccc(NC(=O)[C@@H](NC(=O)c2conc2C2CC2)C2CCCCCC2)c(F)c1` [Compound 269], the IC50 was less than 10 nM.
For `CCC(=O)N[C@@H](C(=O)N1CCN(C)CC1)[C@@H](C)c1ccc(NC(=O)[C@@H](NC(=O)c2nonc2CC)C2CCCCCC2)c(F)c1` [Compound 270], the IC50 was less than 10 nM.
Same read-out and setting: the same measure for `CCC(=O)N[C@@H](C(=O)N1CCN(C)CC1)[C@@H](C)c1ccc(NC(=O)[C@@H](NC(=O)c2ccnn2CC2CC2)C2CCCCCC2)c(F)c1` [Compound 271]: less than 10 nM; for `CCC(=O)N[C@@H](C(=O)N1CCN(C)CC1)[C@@H](C)c1ccc(NC(=O)[C@@H](NC(=O)c2ccoc2C(C)C)C2CCCCCC2)c(F)c1` [Compound 272]: less than 10 nM; for `CCC(=O)N[C@@H](C(=O)N1CCN(C)CC1)[C@@H](C)c1ccc(NC(=O)[C@@H](NC(=O)c2ccnn2C2CCCC2)C2CCCCCC2)c(F)c1` [Compound 273]: less than 10 nM.
As for `CCC(=O)N[C@@H](C(=O)N1CCN(C)CC1)[C@@H](C)c1ccc(NC(=O)[C@@H](NC(=O)c2cccn2C(C)C)C2CCCCCC2)c(F)c1` [Compound 274], the IC50 was less than 10 nM.
The same measure, in the same setting: in the case of `CCC(=O)N[C@@H](C(=O)N1CCN(C)CC1)[C@@H](C)c1ccc(NC(=O)[C@@H](NC(=O)c2cccn2CC)C2CCCCCC2)c(F)c1` [Compound 275] it was less than 10 nM; in that of `CCC(=O)N[C@@H](C(=O)N1CCN(C)CC1)[C@@H](C)c1ccc(NC(=O)[C@@H](NC(=O)C(F)(F)c2csc(C)c2)[C@H]2CC[C@H](C)CC2)c(F)c1` [Compound 276], 10 to 100 nM.
Consider `CCC(=O)N[C@@H](C(=O)N1CCN(C)CC1)[C@@H](C)c1ccc(NC(=O)[C@@H](NC(=O)c2coc3c2COC3)[C@H]2CC[C@H](C)CC2)c(F)c1` [Compound 277], for which the IC50 is less than 10 nM.
Regarding `CCC(=O)N[C@@H](C(=O)N1CCN(C)CC1)[C@@H](C)c1ccc(NC(=O)[C@@H](NC(=O)c2nonc2CC)[C@H]2CC[C@H](C)CC2)c(F)c1` [Compound 278], the IC50 is less than 10 nM.
Same read-out and setting: in the case of `CCC(=O)N[C@@H](C(=O)N1CCN(C)CC1)[C@@H](C)c1ccc(NC(=O)[C@@H](NC(=O)c2conc2C2CC2)[C@H]2CC[C@H](C)CC2)c(F)c1` [Compound 279] it was 10 to 100 nM.
On to `CCC(=O)N[C@@H](C(=O)N1CCN(C)CC1)[C@@H](C)c1ccc(NC(=O)[C@@H](NC(=O)c2cccn2CC)[C@H]2CC[C@H](C)CC2)c(F)c1` [Compound 280], for which the IC50 is 10 to 100 nM.

Source of the values: patent publication US12421212B2, “Substituted benzenecarboxamides as IL-17A modulators” (DiCE Alpha, Inc., priority 2019, dated 2025).
